From patent publication US20240093034A1, “FLUORESCENT DYES” (EXOPHARM LIMITED, priority 2020, published 2024)

Assays:
[1] = tested on: normal human dermal fibroblasts (NHDF); assay: Labelling of human cells with dyes (plate fluorescence); assay type: cell-based; conditions: 2 μM dye, 1 hr 37° C., washed with HBSS; higher = more incorporation
Procedure: Labelling of human cells with dyes 1-10 was performed according to the following procedure. Each well of a Costar 96 well flat bottom plate was seeded with 5,000 normal human dermal fibroblasts (NHDF; not older than P9) and allowed to attach overnight in full media: fibroblast growth media (Lonza)+2% v/v fetal calf serum. Each dye was diluted 1:50 from a stock of 1 mM with 10 mM L-histidine, 150 mM NaCl, pH 6.0, to a final concentration of 20 μM. The dye was subsequently added to full media at a further 1:10 dilution to a final concentration of 2 μM. The media on the cells was subsequently replaced with the freshly prepared full media containing the dye. For negative controls, an equivalent volume of the diluent solution was added to the cell solution. Cells were incubated for 1 hr at 37° C. and then washed with 1 xHBSS (Hank's balanced salt solution) to remove free dye. Plate was imaged using the CLARIOStar spectrophotometer (5x5 matrix mode, average of 25 data points, 3 wells for each dye). A higher fluorescence indicates a higher amount of incorporation into the cells.

[2] = tested on: platelet-derived EVs; assay: Labelling of extracellular vesicles with dyes (Superose 6 HPLC, UV and FLD detection); conditions: EV + 2 μM dye; for FLD area (EV + dye): 1 hr 37° C., void peak area, 562 nm/583 nm (Ex/Em); for Area FLD/Area UV (EV + dye): higher ratio = greater incorporation
Procedure: Labelling of extracellular vesicles (EVs) with dyes 1-10 was performed according to the following procedure. 20 μL of platelet-derived EVs were incubated in HPLC vials with or without each dye at a final concentration of 2 μM dye, the dye stock solution being made up in water. For negative controls, an equivalent volume of the diluent solution was added to the EV solution. The sample was mixed gently. Each sample was subsequently incubated for 1 hr at 37° C. Samples were transferred and stored in the autosampler set at 4° C. A batch table was setup that injected unlabelled EVs prior to labelled EVs. A blank injection was run after each labelled EV experiment to ensure there was no carryover. 15 μL of each sample was injected onto a Superose 6 Increase column (3.2/300) from Cytiva. The flow rate was set at 0.15 mL min* The Shimadzu BioHPLC was run in isocratic mode with Buffer A: 1× PBS (phosphate-buffered saline), pH 7.4, 100 nm filtered. The column oven temperature was set at 30° C. Total run duration was 30 min. Data was collected using two detectors. The PDA (UV detector) was set to scan from 190-800 nm and a channel of the FLD (fluorescence detector) was set at 562 nm/583 nm (Ex/Em). Titration experiments were conducted to confirm that excess dye was removed. The areas of the void peaks from the 214 nm absorption and the 583 nm emission were calculated by the LabSolutions software using the manual integration function. To normalise the fluorescent signal, the total fluorescent area was divided by the UV 214 nm area. This ratio can be used to rank each dye, with higher ratios indicative of greater incorporation.

[3] = tested on: NHDF cells; assay: Labelling of NHDF cells with dyes alone and with EVs (Plexaris) labelled with dyes; assay type: cell-based, human; conditions: for incorporation into NHDFs, Plexaris (PLX)+dye (FIG. 6): Example 9, 0.2 μM dye, 1 hr 37° C.; for extent of incorporation into cells versus dye 2 alone (FIG. 4(a)) / extent of incorporation into cells versus PLX+dye 2 (FIG. 4(b)): 0.2 μM; for extent of incorporation into cells versus dye 2 alone (FIG. 4(a)): normalised to dye 2; for extent of incorporation into cells versus PLX+dye 2 (FIG. 4(b)): dye with PLX, normalised to Plexaris+dye 2
Procedure: (§1) Labelling of NHDF cells with dyes 11-18 alone and EVs labelled with dyes 11-18 was performed according to the following procedure. Each well of a Costar 96 well flat bottom plate was seeded with 5,000 normal human dermal fibroblasts (NHDF; not older than P9) and allowed to attach overnight in full media: fibroblast growth media (Lonza)+2% v/v fetal calf serum. Each dye was diluted in water to a final concentration of 1 mM. The dyes were then diluted to a final concentration of 2 μM in either a base formulation (1× PBS) or a sample of Plexaris (purified EVs derived from platelets) in 1× PBS and incubated at 1 hr at 37° C. The dyes were subsequently added onto the NHDFs at a further 1:10 dilution to a final concentration of 0.2 μM. Cells were incubated for 1 hr at 37° C. and then washed with 1× HBSS (Hank's balanced salt solution) to remove free dye. Plate was imaged using the CLARIOStar spectrophotometer (5×5 matrix mode, average of 25 data points, 3 wells for each dye). The data was normalised against either dye 2 or Plexaris+dye 2. A higher fluorescence indicates a higher amount of incorporation into the cells.
as §1, with “with” for “with dyes 11-18 alone and”, “4, 6, 17, 18, 23, 24 and 25” for “11-18”, “phosphate buffered saline (PBS)” for “water”, “in” for “in either a base formulation (1× PBS) or a sample of”, “in” for “in 1×”, “against” for “against either dye 2 or”

With CCCCCCCCCCCCCCCCN(C)C(=O)c1ccccc1-c1c2ccc(=[N+](CC)CC)cc-2oc2cc(N(CC)CC)ccc12.[Cl-] [Dye 1, Rhodamine B N-methylhexadecylamide] the FLD [1] was 120641, the “FLD area (EV + dye)” value [2] was 2281007 and the “Area FLD/Area UV (EV + dye)” value [2] was 2.09.

CCCCCCCCCCCCCCCCCCCCN(C)C(=O)c1ccccc1-c1c2ccc(=[N+](CC)CC)cc-2oc2cc(N(CC)CC)ccc12.[Cl-] [Dye 3, Rhodamine B N-methylicosaneamide] was tested, and the FLD [1] was 43073, the “FLD area (EV + dye)” value [2] was 4270562 and the “Area FLD/Area UV (EV + dye)” value [2] was 3.63.

CCCCCCCCCCCCCCCCCCCCCCN(C)C(=O)c1ccccc1-c1c2ccc(=[N+](CC)CC)cc-2oc2cc(N(CC)CC)ccc12.[Cl-] [Dye 4] was tested, and the FLD [1] was 18027, the “FLD area (EV + dye)” value [2] was 1901680 and the “Area FLD/Area UV (EV + dye)” value [2] was 2.08. For the same compound, the “incorporation into NHDFs, Plexaris (PLX)+dye (FIG. 6)” value (shortened to “incorporation into NHDFs, Plexaris”) [3] was “found to incorporate into NHDFs”.

CCCCCCCCCCCCCCN(CCCCC)C(=O)c1ccccc1-c1c2ccc(=[N+](CC)CC)cc-2oc2cc(N(CC)CC)ccc12.[Cl-] [Dye 5, Rhodamine B N-pentyltetradecanamide] was tested, and the FLD [1] was 106332, the “FLD area (EV + dye)” value [2] was 2405326 and the “Area FLD/Area UV (EV + dye)” value [2] was 1.25.

For CCCCCCCCCCCCCCCCCCN(CCCCC)C(=O)c1ccccc1-c1c2ccc(=[N+](CC)CC)cc-2oc2cc(N(CC)CC)ccc12.[Cl-] [Dye 6, Rhodamine B N-pentyloctadecanamide], the FLD [1] was 20270, the “FLD area (EV + dye)” value [2] was 4247970 and the “Area FLD/Area UV (EV + dye)” value [2] was 2.36. The “incorporation into NHDFs, Plexaris” value [3] was “found to incorporate into NHDFs”.

With CCCCCCCCCCCCCCCCN(CCOC)C(=O)c1ccccc1-c1c2ccc(=[N+](CC)CC)cc-2oc2cc(N(CC)CC)ccc12.[Cl-] [Dye 7, Rhodamine B N-ethyl methyl ether hexadecanamide] the FLD [1] was 97347, the “FLD area (EV + dye)” value [2] was 1456410 and the “Area FLD/Area UV (EV + dye)” value [2] was 1.38.

In the case of CCCCCCCCCCCCCCCCCCN(CCOC)C(=O)c1ccccc1-c1c2ccc(=[N+](CC)CC)cc-2oc2cc(N(CC)CC)ccc12.[Cl-] [Dye 8, Rhodamine B N-ethyl methyl ether octadecanamide], the FLD [1] is reported as 83404, the “FLD area (EV + dye)” value [2] is reported as 3422473 and the “Area FLD/Area UV (EV + dye)” value [2] is reported as 2.92.

With CCCCCCCCCCCCCCCCCCN(CCO)C(=O)c1ccccc1-c1c2ccc(=[N+](CC)CC)cc-2oc2cc(N(CC)CC)ccc12.[Cl-] [Dye 9, Rhodamine B N-(2-hydroxyethyl)octadecanamide] the FLD [1] was 83536, the “FLD area (EV + dye)” value [2] was 4558422 and the “Area FLD/Area UV (EV + dye)” value [2] was 3.33.

CCCCCCCCCCCCCCCCCCCCN(CCOC)C(=O)c1ccccc1-c1c2ccc(=[N+](CC)CC)cc-2oc2cc(N(CC)CC)ccc12.[Cl-] [Dye 10, Rhodamine B N-ethyl methyl ether icosaneamide] was tested, and the FLD [1] was 45943, the “FLD area (EV + dye)” value [2] was 2826617 and the “Area FLD/Area UV (EV + dye)” value [2] was 2.55.

With CCCCCCCCCCCCCCCCCCCN(C)C(=O)c1ccccc1-c1c2ccc(=[N+](CC)CC)cc-2oc2cc(N(CC)CC)ccc12.[Cl-] [Dye 12, Rhodamine B N-methylnonadecylamide] the “extent of incorporation into cells versus dye 2 alone (FIG. 4(a))” value [3] was “incorporated to the cells to a larger extent” and the “extent of incorporation into cells versus PLX+dye 2 (FIG. 4(b))” value [3] was “incorporated to the cells to a larger extent”.

CCCCCCCCCCCCCCCCCCN(CCC)C(=O)c1ccccc1-c1c2ccc(=[N+](CC)CC)cc-2oc2cc(N(CC)CC)ccc12.[Cl-] [Dye 14, Rhodamine B N-propyloctadecylamide] was tested, and the “extent of incorporation into cells versus dye 2 alone (FIG. 4(a))” value [3] was “incorporated to the cells to a larger extent” and the “extent of incorporation into cells versus PLX+dye 2 (FIG. 4(b))” value [3] was “incorporated to the cells to a larger extent”.

CCCCCCCCCCCCCCCCCCN(CC)C(=O)c1ccccc1-c1c2ccc(=[N+](CC)CC)cc-2oc2cc(N(CC)CC)ccc12.[Cl-] [Dye 15, Rhodamine B N-ethyloctadecylamide] was tested, and the “extent of incorporation into cells versus dye 2 alone (FIG. 4(a))” value [3] was “incorporated to the cells to a larger extent” and the “extent of incorporation into cells versus PLX+dye 2 (FIG. 4(b))” value [3] was “incorporated to the cells to a larger extent”.

With CCCCCCCC/C=C\CCCCCCCCN(C)C(=O)c1ccccc1-c1c2ccc(=[N+](CC)CC)cc-2oc2cc(N(CC)CC)ccc12 [Dye 17, Rhodamine B N-methyloleylamide] the “incorporation into NHDFs, Plexaris” value [3] was “found to incorporate into NHDFs”, the “extent of incorporation into cells versus dye 2 alone (FIG. 4(a))” value [3] was “incorporated to the cells to a larger extent” and the “extent of incorporation into cells versus PLX+dye 2 (FIG. 4(b))” value [3] was “incorporated to the cells to a larger extent”.

For CCCCCCCC/C=C/CCCCCCCCN(C)C(=O)c1ccccc1-c1c2ccc(=[N+](CC)CC)cc-2oc2cc(N(CC)CC)ccc12 [Dye 18, Rhodamine B N-methylelaidylamide], the “incorporation into NHDFs, Plexaris” value [3] was “found to incorporate into NHDFs”, the “extent of incorporation into cells versus dye 2 alone (FIG. 4(a))” value [3] was “incorporated to the cells to a larger extent” and the “extent of incorporation into cells versus PLX+dye 2 (FIG. 4(b))” value [3] was “incorporated to the cells to a larger extent”.

CCCCCCCCCCCCCCCCCCN(C)C(=O)c1ccccc1-c1c2cc/c(=[N+](/CC)CC(F)(F)F)cc-2oc2cc(N(CC)CC(F)(F)F)ccc12.[Cl-] [Dye 23, hexafluoro Rhodamine B N-methyloctadecylamide] was tested, and the “incorporation into NHDFs, Plexaris” value [3] was “found to incorporate into NHDFs”.

In the case of CCCCCCCC/C=C/CCCCCCCCN(C)C(=O)c1ccccc1-c1c2cc/c(=[N+](/CC)CC(F)(F)F)cc-2oc2cc(N(CC)CC(F)(F)F)ccc12.[Cl-] [Dye 24], the “incorporation into NHDFs, Plexaris” value [3] is reported as “found to incorporate into NHDFs”.

CCCCCCCC/C=C\CCCCCCCCN(C)C(=O)c1ccccc1-c1c2cc/c(=[N+](/CC)CC(F)(F)F)cc-2oc2cc(N(CC)CC(F)(F)F)ccc12.[Cl-] [Dye 25, hexafluoro rhodamine B N-methyloleylamide] was tested, and the “incorporation into NHDFs, Plexaris” value [3] was “found to incorporate into NHDFs”.
